Results published in ChEMBL document CHEMBL1137066, “Tryptamine-based human beta3-adrenergic receptor agonists. Part 2: SAR of the methylene derivatives” (Bioorg Med Chem Lett, 2004).

Tests used:
[1] = molecular target: T1, Beta-3 adrenergic receptor (Homo sapiens, UniProt P13945); test: Agonistic activity was determined by measuring cAMP accumulation in CHO cells expressing cloned human Beta-3 adrenergic receptor; type: functional, cell-based
Target sequence in this assay (P13945 whole entry): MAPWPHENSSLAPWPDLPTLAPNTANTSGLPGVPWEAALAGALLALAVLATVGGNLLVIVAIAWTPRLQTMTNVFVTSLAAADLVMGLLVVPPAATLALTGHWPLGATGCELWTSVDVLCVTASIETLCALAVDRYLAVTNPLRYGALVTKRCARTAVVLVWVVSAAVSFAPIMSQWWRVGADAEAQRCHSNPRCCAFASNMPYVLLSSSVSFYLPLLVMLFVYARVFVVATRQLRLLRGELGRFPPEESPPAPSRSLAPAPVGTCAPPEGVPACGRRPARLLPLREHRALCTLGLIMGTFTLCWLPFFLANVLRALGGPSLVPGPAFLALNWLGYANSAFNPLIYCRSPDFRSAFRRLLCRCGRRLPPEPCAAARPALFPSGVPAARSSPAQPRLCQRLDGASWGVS

[2] = molecular target: T1, Beta-3 adrenergic receptor; test: Intrinsic activity expressed as percentage of maximal stimulation with isoproterenol of Beta-3 adrenergic receptor; type: functional
Target sequence in this assay (P13945 whole entry, looked up): as the sequence (P13945 whole entry) above

[3] = molecular target: T2, Beta-1 adrenergic receptor (Homo sapiens, UniProt P08588); test: Agonistic activity at human Beta-1 adrenergic receptor at 1000 nM concentration; type: functional
Target sequence in this assay (P08588 whole entry, looked up): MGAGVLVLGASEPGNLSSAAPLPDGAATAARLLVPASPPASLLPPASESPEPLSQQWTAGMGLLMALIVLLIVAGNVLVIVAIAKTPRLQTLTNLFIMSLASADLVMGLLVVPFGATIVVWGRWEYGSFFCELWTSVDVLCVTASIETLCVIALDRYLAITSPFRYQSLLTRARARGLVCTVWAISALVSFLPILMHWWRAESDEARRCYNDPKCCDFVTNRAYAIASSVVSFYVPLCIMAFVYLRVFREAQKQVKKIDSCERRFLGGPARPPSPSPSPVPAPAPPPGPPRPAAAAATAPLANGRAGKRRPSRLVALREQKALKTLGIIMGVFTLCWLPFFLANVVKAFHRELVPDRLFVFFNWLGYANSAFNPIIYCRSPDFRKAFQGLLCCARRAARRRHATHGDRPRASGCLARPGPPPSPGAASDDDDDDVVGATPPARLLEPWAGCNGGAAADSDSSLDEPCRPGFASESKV

[4] = molecular target: T3, Beta-2 adrenergic receptor (Homo sapiens, UniProt P07550); test: (§1) Agonistic activity at human Beta-2 adrenergic receptor at 1000 nM concentration; type: functional
Target sequence in this assay (P07550 whole entry, looked up): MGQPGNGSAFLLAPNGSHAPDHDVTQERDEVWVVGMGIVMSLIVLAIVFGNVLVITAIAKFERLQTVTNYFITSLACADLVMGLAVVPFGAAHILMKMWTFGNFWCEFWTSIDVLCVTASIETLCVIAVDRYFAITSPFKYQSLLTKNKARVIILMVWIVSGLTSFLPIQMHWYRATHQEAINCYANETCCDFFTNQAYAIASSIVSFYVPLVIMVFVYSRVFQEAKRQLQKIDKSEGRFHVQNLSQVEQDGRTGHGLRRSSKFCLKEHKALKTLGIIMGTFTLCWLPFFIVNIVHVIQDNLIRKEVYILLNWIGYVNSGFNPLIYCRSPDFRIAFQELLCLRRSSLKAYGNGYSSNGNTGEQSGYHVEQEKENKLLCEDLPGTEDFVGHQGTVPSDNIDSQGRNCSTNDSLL

[5] = molecular target: T2, Beta-1 adrenergic receptor; test: Binding inhibition constant was determined by inhibition of [125I]-iodocyanopindolol binding to Beta-1 adrenergic receptor
Target sequence in this assay (P08588 whole entry): as the sequence (P08588 whole entry, looked up) above

[6] = molecular target: T3, Beta-2 adrenergic receptor; test: Binding inhibition constant was determined by inhibition of [125I]iodocyanopindolol binding to Beta-2 adrenergic receptor
Target sequence in this assay (P07550 whole entry): as the sequence (P07550 whole entry, looked up) above

[7] = molecular target: T1, Beta-3 adrenergic receptor; test: Binding inhibition constant was determined by inhibition of [125I]iodocyanopindolol binding to Beta-3 adrenergic receptor
Target sequence in this assay (P13945 whole entry): as the sequence (P13945 whole entry) above

[8] = molecular target: T2, Beta-1 adrenergic receptor; test: Agonistic activity was determined by measuring cAMP accumulation in CHO cells expressing cloned human Beta-1 adrenergic receptor; type: functional, cell-based
Target sequence in this assay (P08588 whole entry): as the sequence (P08588 whole entry, looked up) above

[9] = molecular target: T2, Beta-1 adrenergic receptor; test: Intrinsic activity expressed as percentage of maximal stimulation with isoproterenol of Beta-1 adrenergic receptor; type: functional
Target sequence in this assay (P08588 whole entry, looked up): as above

[10] = molecular target: T3, Beta-2 adrenergic receptor; test: Agonistic activity was determined by measuring cAMP accumulation in CHO cells expressing cloned human Beta-2 adrenergic receptor; type: functional, cell-based
Target sequence in this assay (P07550 whole entry): as the sequence (P07550 whole entry, looked up) above

[11] = molecular target: T3, Beta-2 adrenergic receptor; test: Intrinsic activity determined by measuring cAMP accumulation in CHO cells expressing cloned human Beta-2 adrenergic receptor and activity expressed as percentage of maximal stimulation with isoproterenol; type: functional, cell-based
Target sequence in this assay (P07550 whole entry, looked up): as above

[12] = molecular target: T1, Beta-3 adrenergic receptor; test: as §1; type: functional
Target sequence in this assay (P13945 whole entry, looked up): as the sequence (P13945 whole entry) above

EC50 [1] [nM]	IA [2] [%]	Activity [3] [%]	Activity [4] [%]	Ki [5] [nM]	Ki [6] [nM]	Ki [7] [nM]	EC50 [8] [nM]	IA [9] [%]	EC50 [10] [nM]	Activity [11] [%]	IA [12] [%]	SMILES
48	49	0	24	–	–	–	–	–	–	–	–	CS(=O)(=O)Oc1cccc2c(CCNC[C@H](O)c3cccc(NS(=O)(=O)CC(F)(F)F)c3)c[nH]c12
0.31	105	3	6	89	70	2.6	–	–	–	–	–	CS(=O)(=O)Oc1cccc2c(CCNC[C@H](O)c3cccc(NS(=O)(=O)c4cccc(N)c4)c3)c[nH]c12
0.21	97	–	–	66	48	4	44	36	18	–	–	C[C@H](Cc1c[nH]c2c(OS(C)(=O)=O)cccc12)NC[C@H](O)c1cccc(NS(=O)(=O)c2cccs2)c1
3	80	7	9	–	–	–	–	–	–	–	–	CS(=O)(=O)Oc1cccc2c(CCNC[C@H](O)c3cccc(NS(=O)(=O)c4ccccc4N)c3)c[nH]c12
25	77	3	9	–	–	–	–	–	–	–	–	Cc1cccc2c(CCNC[C@H](O)c3cccc(NS(=O)(=O)c4cccs4)c3)c[nH]c12
2.8	82	6	17	–	–	–	–	–	–	–	–	CS(=O)(=O)Oc1cccc2c(CCNC[C@H](O)c3cccc(NS(=O)(=O)c4ccc(Br)s4)c3)c[nH]c12
1	–	11	–	–	–	–	–	–	–	13	96	CS(=O)(=O)Oc1cccc2c(CCNC[C@H](O)c3cccc(NS(=O)(=O)c4cccc(Cl)c4)c3)c[nH]c12
13	87	6	16	–	–	–	–	–	–	–	–	COc1cccc2c(CCNC[C@H](O)c3cccc(NS(=O)(=O)c4cccs4)c3)c[nH]c12
0.94	97	11	10	–	–	–	–	–	–	–	–	COc1cccc(S(=O)(=O)Nc2cccc([C@@H](O)CNCCc3c[nH]c4c(OS(C)(=O)=O)cccc34)c2)c1
7.6	81	10	32	–	–	–	–	–	–	–	–	O=S(=O)(Nc1cccc([C@@H](O)CNCCc2c[nH]c3c(OCc4ccccc4)cccc23)c1)c1cccs1
1.7	89	12	23	230	223	33	–	–	–	–	–	CS(=O)(=O)Oc1cccc2c(CCNC[C@H](O)c3cccc(NS(=O)(=O)c4cccs4)c3)c[nH]c12
2.4	97	10	8	–	–	–	–	–	–	–	–	CS(=O)(=O)Oc1cccc2c(CCNC[C@H](O)c3cccc(NS(=O)(=O)c4cccc(F)c4)c3)c[nH]c12
2	86	14	15	–	–	–	–	–	–	–	–	CS(=O)(=O)Oc1cccc2c(CCNC[C@H](O)c3cccc(NS(=O)(=O)c4ccccc4)c3)c[nH]c12
6.7	93	7	18	–	–	–	–	–	–	–	–	CS(=O)(=O)Oc1cccc2c(CCNC[C@H](O)c3cccc(NS(=O)(=O)c4cc(Cl)c(Cl)s4)c3)c[nH]c12
21	73	2	15	–	–	–	–	–	–	–	–	O=S(=O)(Nc1cccc([C@@H](O)CNCCc2c[nH]c3ccccc23)c1)c1cccs1
8.4	85	5	15	–	–	–	–	–	–	–	–	CS(=O)(=O)Oc1cccc2c(CCNC[C@H](O)c3cccc(NS(=O)(=O)c4ccc(N)cc4)c3)c[nH]c12
